Holding throughout (assay type): cell-based
In one experiment the test system is IL-1β. Kind of experiment: Inhibition of IL-1β in PMA-differentiated, LPS-stimulated THP-1 cells (ELISA of cell lysate). The note with it: Homo sapiens, LPS 100 ng/mL. As to the method:
(§1) (1) Cell culture and inoculation: A stock solution of PMA at 1 mg/mL was diluted with serum-free RP1640 medium to prepare a 100 ng/mL PMA solution. Normal cultured THP-1 cells were centrifuged, resuspended in a complete medium (RP1640 medium containing 10% FBS), and counted. The cell density was adjusted to 2×10^6 cells/mL. An equal volume of 100 ng/mL PMA solution was then added, resulting in a cell density of 1×10^6 cells/mL and a final PMA concentration of 50 ng/mL. 100 μL of the cell suspension was seeded into each well of a 96-well cell culture plate with 1×10^5 cells per well. The 96-well cell culture plate was then incubated at 37° C. in a 5% CO2 atmosphere for 24 hours.
(§2) (2) Drug treatment of cells: On the second day, LPS was added to the complete medium to adjust the final concentration to 100 ng/mL, and the compound was prepared using this LPS-containing medium. The compound was added to the appropriate cell wells according to the prepared concentration gradient. The positive control group (LPS+) was a culture medium solution containing a final concentration of 100 ng/mL LPS and 0.1% DMSO without drugs, while the negative control group (LPS-) was a culture medium solution containing 0.1% DMSO without LPS. The volume in each well was 100 μL.
(§3) (3) Test sample collection: The mixture was centrifuged at 1000 rpm for 5 minutes and the cell supernatant and cell precipitate were collected separately. The cell supernatant was used to detect TNF-α and IL-6, and the cell precipitate was collected for IL-1β detection. After collecting the cell supernatant, the remaining liquid in the wells was discarded and 100 μL of cell lysis solution (20 mM Tris 8.0; 2 mM EDTA; 0.5% Triton X-100) was added to each well for complete lysis.
(§4) (4) Sample detection: The enzyme-linked immunosorbent assay (ELISA) was used to detect the content of each cytokine. The specific steps were performed according to the instructions provided in the corresponding kit manuals. The catalog numbers of kits are as follows: • Human TNF-alpha Quantikine ELISA Kit, Catalog # STA00D • Human IL-1 beta/IL-1F2 Quantikine ELISA Kit, Catalog # SLB50 • Human IL-6 Quantikine ELISA Kit, Catalog # S6050.
(§5) (5) Data analysis: The in vitro inhibitory activity of the compounds was calculated using the following formula: […]
In general terms: An ELISA detects its analyte on a solid surface through an enzyme-linked reagent.

A further experiment concerns IL-6. Kind of experiment: Inhibition of IL-6 in PMA-differentiated, LPS-stimulated THP-1 cells (ELISA of cell supernatant). The note with it: Homo sapiens, LPS 100 ng/mL. As to the method: as §1, §2, §3, §4, §5
In a further experiment the test system is TNF-α. Put plainly: Inhibition of TNF-α in PMA-differentiated, LPS-stimulated THP-1 cells (ELISA of cell supernatant). The note with it: Homo sapiens, THP-1, Table 7, PMA 50 ng/mL, LPS 100 ng/mL. As to the method:
as §1, §2, §3, §4, §5

As a reminder, the IC50 is the point on the concentration scale where inhibition reaches its midpoint. Turning to `CC(CCCN1CCS(=O)(=O)CC1)Nc1ccnc2cc(Cl)ccc12` (centres unmarked) [Example 1, 4-(4-((7-Chloroquinolin-4-yl)amino)pentyl)thiomorpholine-1,1-dioxide], the 50% inhibitory concentration (IC50) stood at 23.1 µM in the experiment with IL-1β (THP-1, Table 7, PMA 50 ng/mL); 860 nM with IL-6 (THP-1, Table 7, PMA 50 ng/mL); 31.7 µM with TNF-α.
For `CC(CCCN1C(=O)CN(C)C1=O)Nc1ccnc2cc(Cl)ccc12` (centres unmarked) [Example 2, 3-(4-((7-Chloroquinolin-4-yl)amino)pentyl)-1-methylimidazolidine-2,4-dione], in that order: 17.9 µM, 1170 nM and 10.4 µM.
In the case of `CC(CCCNCCN1CCCC1)Nc1ccnc2cc(Cl)ccc12` (centres unmarked) [Example 3, N^4-(7-Chloroquinolin-4-yl)-N^1-(2-(pyrrolidin-1-yl)ethyl)pentane-1,4-diamine], the 50% inhibitory concentration (IC50) is 5530 nM with IL-6 (THP-1, Table 7, PMA 50 ng/mL) and 56.5 µM in the experiment on TNF-α.
On to `CC(CCCNCC1(C)COC1)Nc1ccnc2cc(Cl)ccc12` (centres unmarked) [Example 4, N^4-(7-Chloroquinolin-4-yl)-N^1-((3-methyloxetan-3-yl)methyl)pentane-1,4-diamine], for which the IC50 is 14.4 µM in the experiment on IL-1β (THP-1, Table 7, PMA 50 ng/mL); 1280 nM in the experiment with IL-6 (THP-1, Table 7, PMA 50 ng/mL); 5.54 µM with TNF-α.
Taken in the same sequence, the figures for `CCOc1ncccc1CNCCCC(C)Nc1ccnc2cc(Cl)ccc12` (centres unmarked) [Example 5, N^4-(7-Chloroquinolin-4-yl)-N^1-((2-ethoxypyridin-3-yl)methyl)pentane-1,4-diamine] were 19.5 µM, 3950 nM and 25.6 µM.
Take `CC(CCCN1CC2(COC2)C1)Nc1ccnc2cc(Cl)ccc12` (centres unmarked) [Example 6, N-(5-(2-Oxa-6-azaspiro[3.3]heptan-6-yl)pentan-2-yl)-7-chloroquinolin-4-amine]: the half-maximal inhibitory concentration (IC50) is 23900 nM in the experiment with IL-6 (THP-1, Table 7, PMA 50 ng/mL) and 32.7 µM with TNF-α.
Take `CC(CCCN1CC2(CCOCC2)C1)Nc1ccnc2cc(Cl)ccc12` (centres unmarked) [Example 7, N-(5-(7-Oxa-2-azaspiro[3.5]nonan-2-yl)pentan-2-yl)-7-chloroquinolin-4-amine]: the half-maximal inhibitory concentration (IC50) came to 30.1 µM in the experiment with IL-1β (THP-1, Table 7, PMA 50 ng/mL); 2060 nM with IL-6 (THP-1, Table 7, PMA 50 ng/mL); 12.2 µM in the experiment with TNF-α.
For `CC(CCCN1CC2CCCC2C1)Nc1ccnc2cc(Cl)ccc12` (centres unmarked) [Example 8, 7-Chloro-N-(5-(hexahydrocyclopenta[c]pyrrol-2 (1H)-yl)pentan-2-yl)quinolin-4-amine], in that order: 34.1 µM, 3290 nM and 18.4 µM.
For the compound `CCN1CCC2(C1)CN(CCCC(C)Nc1ccnc3cc(Cl)ccc13)C2` (centres unmarked) [Example 9, 7-Chloro-N-(5-(6-ethyl-2,6-diazaspiro[3.4]octan-2-yl)pentan-2-yl)quinolin-4-amine], the IC50 with IL-1β (THP-1, Table 7, PMA 50 ng/mL) stood at 48.3 µM; with IL-6 (THP-1, Table 7, PMA 50 ng/mL) it was 10500 nM; in the experiment with TNF-α, 28.3 µM.
Taken in the same sequence, the figures for `CC(CCCN1CC(F)(F)C1)Nc1ccnc2cc(Cl)ccc12` (centres unmarked) [Example 10, 7-Chloro-N-(5-(3,3-difluoroazetidin-1-yl)pentan-2-yl)quinolin-4-amine] were 15 µM, 380 nM and 8.91 µM.
For `O=C1CCC(=O)N1CCCCNc1ccnc2cc(Cl)ccc12` [Example 11, 1-(4-((7-Chloroquinolin-4-yl)amino)butyl)pyrrolidine-2,5-dione], in that order: 24.3 µM, 10600 nM and 29.9 µM.
In the experiment with IL-6 (THP-1, Table 7, PMA 50 ng/mL), `CC(CCCN1C(=O)CNC1=O)Nc1ccnc2cc(F)ccc12` (centres unmarked) [Example 12, 3-(4-((7-Fluoroquinolin-4-yl)amino)pentyl)imidazolidine-2,4-dione] displayed a 50% inhibitory concentration (IC50) of 20500 nM. In other words, the double-digit micromolar range.
Take `CC(CCCN1C(=O)CNC1=O)Nc1ncnc2cc(Cl)ccc12` (centres unmarked) [Example 13, 3-(4-((7-Chloroquinazolin-4-yl)amino)pentyl)imidazolidine-2,4-dione]: the IC50 in the experiment with IL-1β (THP-1, Table 7, PMA 50 ng/mL) came out at 28.6 µM; with IL-6 (THP-1, Table 7, PMA 50 ng/mL), 1800 nM; in the experiment on TNF-α, 7.83 µM.
Consider `CC(CCCN1CC2(CCOCC2)C1)Nc1ncnc2cc(F)ccc12` (centres unmarked) [Example 14, N-(5-(7-Oxa-2-azaspiro[3.5]nonan-2-yl)pentan-2-yl)-7-fluoroquinazolin-4-amine], for which the IC50 with IL-6 (THP-1, Table 7, PMA 50 ng/mL) came to 2980 nM.
As to `CC(CCCN1C(=O)CCC1=O)Nc1ncnc2cc(Cl)ccc12` (centres unmarked) [Example 15, 1-(4-((7-Chloroquinazolin-4-yl)amino)pentyl)pyrrolidine-2,5-dione], the IC50 with IL-6 (THP-1, Table 7, PMA 50 ng/mL) stood at 1240 nM; with TNF-α, 17.4 µM.
In the case of `CC(CCCN(CCO)Cc1ncco1)Nc1ncnc2cc(Cl)ccc12` (centres unmarked) [Example 16, 2-((4-((7-Chloroquinazolin-4-yl)amino)pentyl)(oxazol-2-ylmethyl)amino)ethan-1-ol], the IC50 in the experiment on IL-1β (THP-1, Table 7, PMA 50 ng/mL) amounted to 23.4 µM; in the experiment with IL-6 (THP-1, Table 7, PMA 50 ng/mL), 590 nM; in the experiment on TNF-α, 53.2 µM.
For `CC(CCCN(CCO)Cc1cccc(F)c1)Nc1ccnc2cc(Cl)ccc12` (centres unmarked) [Example 17, 2-((4-((7-Chloroquinolin-4-yl)amino)pentyl)(3-fluorobenzyl)amino)ethan-1-ol], in that order: 23.6 µM, 641 nM and 4.72 µM.
For `CC(CCCN(CCO)Cc1ccc(F)cc1F)Nc1ccnc2cc(Cl)ccc12` (centres unmarked) [Example 18, 2-((4-((7-Chloroquinolin-4-yl)amino)pentyl)(2,4-difluorobenzyl)amino)ethan-1-ol], in that order: 2.94 µM, 226 nM and 3.26 µM.
`CC(CCCN(CCO)Cc1cnccn1)Nc1ccnc2cc(Cl)ccc12` (centres unmarked) [Example 32, 2-((4-((7-Chloroquinolin-4-yl)amino)pentyl)(pyrazin-2-ylmethyl)amino)ethan-1-ol] came in with a 50% inhibitory concentration (IC50) with IL-6 (THP-1, Table 7, PMA 50 ng/mL) of 630 nM.
The same measure, in the same setting: next, `CC(CCCN(CCO)Cc1ncn(C)n1)Nc1ccnc2cc(Cl)ccc12` (centres unmarked) [Example 33, 2-((4-((7-Chloroquinolin-4-yl)amino)pentyl)((1-methyl-1H-1,2,4-triazol-3-yl)methyl)amino)ethan-1-ol]: 3850 nM.
For the compound `CC(CCCN(CCO)Cc1c(F)cccc1Cl)Nc1ncnc2cc(Cl)ccc12` (centres unmarked) [Example 38], the concentration for half-maximal inhibition (IC50) in the experiment with IL-6 (THP-1, Table 7, PMA 50 ng/mL) was 120 nM; with TNF-α it was 7.28 µM.
`CC(CCCN(CCO)Cc1ncco1)Nc1ccnc2cc(F)ccc12` (centres unmarked) [Example 41] had an IC50 in the experiment with IL-6 (THP-1, Table 7, PMA 50 ng/mL) of 30400 nM.
As to `OCCN(CCCCCNc1ncnc2cc(Cl)ccc12)Cc1ncco1` [Example 46, 2-((5-((7-Chloroquinazolin-4-yl)amino)pentyl)(oxazol-2-ylmethyl)amino)ethan-1-ol], the IC50 turned out to be 270 nM with IL-6 (THP-1, Table 7, PMA 50 ng/mL) and 56.7 µM in the experiment with TNF-α.
Consider `O=C1CNC(=O)N1CCCCCNc1ncnc2cc(F)ccc12` [Example 50, 3-(5-((7-Fluoroquinazolin-4-yl)amino)pentyl)imidazolidine-2,4-dione], for which the half-maximal inhibitory concentration (IC50) with IL-1β (THP-1, Table 8, PMA 50 ng/mL) is 122 µM; with IL-6 (THP-1, Table 8, PMA 50 ng/mL) it was 3990 nM.
For the compound `CC1(C)NC(=O)N(CCCCCNc2ncnc3cc(F)ccc23)C1=O` [Example 53, 3-(5-((7-Fluoroquinazolin-4-yl)amino)pentyl)-5,5-dimethylimidazoline-2,4-dione], the IC50 was 118 µM with IL-1β (THP-1, Table 8, PMA 50 ng/mL) and 520 nM with IL-6 (THP-1, Table 8, PMA 50 ng/mL).
In the experiment on IL-6 (THP-1, Table 8, PMA 50 ng/mL), `O=C1NC2(CCNCC2)C(=O)N1CCCCNc1ncnc2cc(F)ccc12` [Example 60, 3-(4-((7-Fluoroquinazolin-4-yl)amino)butyl)-1,3,8-triazaspiro[4.5]decane-2,4-dione] displayed an IC50 of 34000 nM.
Regarding `O=C1NC2(CC2)C(=O)N1CCCCNc1ncnc2cc(F)ccc12` [Example 61, 6-(4-((7-Fluoroquinazolin-4-yl)amino)butyl)-4,6-diazaspiro[2.4]heptane-5,7-dione], the IC50 is 134 µM in the experiment on IL-1β (THP-1, Table 8, PMA 50 ng/mL) and 5840 nM in the experiment with IL-6 (THP-1, Table 8, PMA 50 ng/mL).
As for `O=C1NC2(CC2)C(=O)N1CCCCNc1ncnc2cc(Cl)ccc12` [Example 65, 6-(4-((7-Chloroquinazolin-4-yl)amino)butyl)-4,6-diazaspiro[2.4]heptane-5,7-dione], the IC50 in the experiment on IL-6 (THP-1, Table 8, PMA 50 ng/mL) turned out to be 2020 nM.
Still for that read-out and setting: next, `O=C1NC2(CC2)C(=O)N1CCCCCNc1ncnc2cc(Cl)ccc12` [Example 68, 6-(5-((7-Chloroquinazolin-4-yl)amino)pentyl)-4,6-diazaspiro[2.4]heptane-5,7-dione]: 420 nM; `O=C1NC2(CCC2)C(=O)N1CCCCCNc1ncnc2cc(Cl)ccc12` [Example 70, 7-(5-((7-Chloroquinazolin-4-yl)amino)pentyl)-5,7-diazaspiro[3.4]octane-6,8-dione]: 460 nM; `C[C@H](CCCN1C(=O)CNC1=O)Nc1ncnc2cc(Cl)ccc12` [Example 74, (R)-3-(4-((7-Chloroquinazolin-4-yl)amino)pentyl)imidazolidine-2,4-dione]: 12400 nM.

These data come from patent publication US20240262793A1, “QUINAZOLINE COMPOUND, AND PREPARATION METHOD THEREFOR AND APPLICATION THEREOF” (SHANGHAI PHARMACEUTICALS HOLDING CO., LTD., priority 2021, published 2024).
